Measured values reported in ChEMBL document CHEMBL5532691, “Anti-cancer activity and mechanism of flurbiprofen organoselenium compound RY-1-92 in non-small cell lung cancer” (RSC Med Chem, 2024).

Experiments:
BEAS-2B [1] = assay: Cytotoxicity against human BEAS-2B cells assessed as reduction in cell viability at 25 uM measured after 48 hrs by MTT assay; assay type: toxicity, cell-based
BEAS-2B [2] = assay: Cytotoxicity against human BEAS-2B cells assessed as reduction in cell viability at 1.2 mM measured after 48 hrs by MTT assay; assay type: toxicity, cell-based; details: 1200 µM

O=c1[nH]cc(F)c(=O)[nH]1 [FLUOROURACIL]
Activity (BEAS-2B [1]): Toxic

CC1=C(CC(=O)O)c2cc(F)ccc2/C1=C\c1ccc([S+](C)[O-])cc1 (configuration not stated) [SULINDAC]
Activity (BEAS-2B [2]): Toxic
